In US5760017A, “Cyclodextrin derivatives usable in particular for solubilizing hydrophobic chemical compounds such as medicaments and their preparation process” (priority 1993, dated 1998):
≈ marks a conversion by molar mass, not a printed value. Like-named read-outs stand apart in the source and are kept apart here.

How the values were obtained:
[1] = Solubility in water under physiological conditions; settings: sodium phosphate buffer, pH 7.4, aqueous buffer
[2] = Ionization potential measurements (pK) by potentiometry; assay type: physicochemical
[3] = Solubilization of prednisolone in water by the cyclodextrin derivative; assay type: physicochemical
Experimental: 10 μmole of heptakis-6-ethanolamino-6-deoxycyclomaltoheptaose (in hydrochloride form) prepared in example 1, are dissolved in 1 ml of pure water (apyrogenic water for injection) and addition takes place of 5 μmole of prednisolone in the form of a 50 mmole/l concentrated solution in acetone. The acetone is eliminated by nitrogen passage for 10 minutes and the solution is lyophilized.
The residual solid, which contains 10 μmole of the cyclodextrin derivative and 5 μmole of prednisolone, is redissolved in the minimum of water at 25° C.

[4] = tested on: human erythrocytes; assay: Hemolytic properties on human erythrocytes; assay type: cell-based; settings: 5 mmole/l hydrochloride solution (4 ml) with 0.4 ml human erythrocytes, pH 7.4, 30 minutes, 37° C.
Experimental: Thus, the hemolytic properties of the derivative obtained in example 1 were tested by contacting 0.4 ml of a solution of human erythrocytes and 4 ml of the 5 mmole/l hydrochloride solution, at a pH of 7.4, for 30 minutes and 37° C.

[5] = Solubility in water under physiological conditions, free base form, pH 7.40, 25° C.
[6] = Solubility in water under physiological conditions, hydrochloride form, pH 7.40, 25° C.
[7] = potentiometry, single pK, read-out: pK (single)

`OCCNC[C@H]1O[C@@H]2O[C@H]3[C@H](O)[C@@H](O)[C@@H](O[C@H]4[C@H](O)[C@@H](O)[C@@H](O[C@H]5[C@H](O)[C@@H](O)[C@@H](O[C@H]6[C@H](O)[C@@H](O)[C@@H](O[C@H]7[C@H](O)[C@@H](O)[C@@H](O[C@H]8[C@H](O)[C@@H](O)[C@@H](O[C@H]1[C@H](O)[C@H]2O)O[C@@H]8CO)O[C@@H]7CO)O[C@@H]6CO)O[C@@H]5CO)O[C@@H]4CO)O[C@@H]3CO` [Example 1, mono-6-ethanolamino-6-deoxycyclomaltoheptaose] showed a solubility [1, 5] of 40 mM (≈ 47.1 mg/mL), a solubility [1, 6] of 95 mM (≈ 112 mg/mL) and a pKa [2, 7] of 7.1. The “maximum prednisolone solubility reached in water in the presence of the cyclodextrin (derivative)” value (“maximum prednisolone solubility reached” below) [3] was 18 mM and the “hemolysis (in words)” value [4] was “no hemolysis was observed”.

With `OCCNC[C@H]1O[C@@H]2O[C@H]3[C@H](O)[C@@H](O)[C@@H](O[C@H]4[C@H](O)[C@@H](O)[C@@H](O[C@H]5[C@H](O)[C@@H](O)[C@@H](O[C@H]6[C@H](O)[C@@H](O)[C@@H](O[C@H]7[C@H](O)[C@@H](O)[C@@H](O[C@H]8[C@H](O)[C@@H](O)[C@@H](O[C@H]1[C@H](O)[C@H]2O)O[C@@H]8CNCCO)O[C@@H]7CNCCO)O[C@@H]6CNCCO)O[C@@H]5CNCCO)O[C@@H]4CNCCO)O[C@@H]3CNCCO` [Example 2, heptakis-6-ethanolamino-6-deoxycyclomaltoheptaose] the solubility [1, 5] was 140 mM (≈ 201 mg/mL), the solubility [1, 6] was 350 mM (≈ 503 mg/mL) and the pKa [2, 7] was 7.05. The “maximum prednisolone solubility reached” value [3] was 30 mM.

Work on `NCCNC[C@H]1O[C@@H]2O[C@H]3[C@H](O)[C@@H](O)[C@@H](O[C@H]4[C@H](O)[C@@H](O)[C@@H](O[C@H]5[C@H](O)[C@@H](O)[C@@H](O[C@H]6[C@H](O)[C@@H](O)[C@@H](O[C@H]7[C@H](O)[C@@H](O)[C@@H](O[C@H]8[C@H](O)[C@@H](O)[C@@H](O[C@H]1[C@H](O)[C@H]2O)O[C@@H]8CO)O[C@@H]7CO)O[C@@H]6CO)O[C@@H]5CO)O[C@@H]4CO)O[C@@H]3CO` [reference compound] yielded a solubility [1] of 70 mM (≈ 82.4 mg/mL), a pKa ([2]; first of two pK's, read-out: pK (first of two)) of 7.5 and a pKa ([2]; second of two pK's, read-out: pK (second of two)) of 9.5. For the same molecule, the “maximum prednisolone solubility reached” value ([3]; 25° C., 10 μmole cyclodextrin derivative and 5 μmole prednisolone, lyophilized, redissolved in minimum of water (cyclodextrin derivative at 60 mmole/l for the per-substituted derivative)) was 12 mM.
